Test results published in patent US10889563B2, “Deoxyuridine triphosphatase inhibitors” (University of Southern California, priority 2013, dated 2021).

Key:
HCT116 cells [1] = assay: Colony formation assay, HCT116; format: cell-based
Procedure: Colony forming assay showing the ability of colon (SW620, HCT 116), non-small cell lung (A549, H460, H1299 and H358) and breast (MCF7) cancer cells to survive and proliferate following transient 24 hour exposure to single agent PCI 1013, FUdR and combinations. Specifically, cells were seeded at densities between 50 and 100 cells/well in 24-well plates. Twenty-four hours later, cells were treated with increasing concentrations of PCI 10213, a fixed dose of FUdR and combinations of these. After 24 hours, drug was removed, cells were rinsed and allowed to outgrow for 10-14 days. At the conclusion of the outgrowth, cells were fixed in 60% ice cold methanol and stained with 0.1% crystal violet, scanned and counted. Data is presented as percentage of untreated controls (mean±SD). Fraction affected and combination indexes were calculated according to the method of Chou and Talalay where <1 is indicative of a synergistic drug interaction. […]
(§1) In colorectal cancer cells, concentrations of PCI 10213 ranging from 3.1 μmol/L to 50 μmol/L were combined with 0.5 μmol/L FUdR in HCT116 cells and 1 μmol/L FUdR in SW620 cells.

SW620 cells [2] = assay: Colony formation assay, SW620; format: cell-based
Procedure: (§2) Colony forming assay showing the ability of colon (SW620, HCT 116), non-small cell lung (A549, H460, H1299 and H358) and breast (MCF7) cancer cells to survive and proliferate following transient 24 hour exposure to single agent PCI 1013, FUdR and combinations. Specifically, cells were seeded at densities between 50 and 100 cells/well in 24-well plates. Twenty-four hours later, cells were treated with increasing concentrations of PCI 10213, a fixed dose of FUdR and combinations of these. After 24 hours, drug was removed, cells were rinsed and allowed to outgrow for 10-14 days. At the conclusion of the outgrowth, cells were fixed in 60% ice cold methanol and stained with 0.1% crystal violet, scanned and counted. Data is presented as percentage of untreated controls (mean±SD). Fraction affected and combination indexes were calculated according to the method of Chou and Talalay where <1 is indicative of a synergistic drug interaction.
as §1

A549 cells [3] = assay: Colony formation assay, A549; format: cell-based
Procedure: as §2
(§3) Subsequently, increasing concentrations of PCI 10213 were combined with a fixed dose of FUdR to evaluate the combined drug effect. In NSCLC cells, concentrations of PCI 10213 ranging from 3.1 μmol/L to 25 μmol/L were combined with 1 μmol/L FUdR. […] The effectiveness of this combination was pronounced in A549 and H460 cells where 12.5 and 25 μmol/L PCI 10213 combined with 1 μmol/L FUdR reduced cell viability by >95% compared to vehicle-treated controls.

H460 cells = assay: Colony formation assay, H460; format: cell-based
Procedure: as §2, §3

[4] = system: colorectal (HCT116), breast (MCF-7) and non-small cell lung (H1299, A549, H358 and H460) cell line models; assay: Colony formation assay, all cell lines evaluated; format: cell-based
Procedure: as §2, §3

[5] = system: NSCLC cells (H1299, A549, H358 and H460); assay: Colony formation assay, NSCLC cells; format: cell-based; details: 3.1 to 25 μmol/L compound plus 1 μmol/L FUdR, vs single agents
Procedure: as §2, §3

HCT116 cells [6] = details: for decrease in growth / reduction in proliferation: 100 μmol/L single agent; for combined effect with 5-FU on growth inhibition: HCT116, fixed 25 μmol/L compound plus increasing 5-FU, up to 25 μmol/L 5-FU
[7] = target: T1, Recombinant human deoxyuridine nucleotidohydrolase (dUTPase) (Homo sapiens, UniProt P33316); assay: Fluorescence-based dUTPase inhibition assay (Example 23; 2.5 ng dUTPase, 10 min at 37° C.); format: biochemical; set-up: made in house
T1 sequence (P33316 1-164 isoform P33316-2): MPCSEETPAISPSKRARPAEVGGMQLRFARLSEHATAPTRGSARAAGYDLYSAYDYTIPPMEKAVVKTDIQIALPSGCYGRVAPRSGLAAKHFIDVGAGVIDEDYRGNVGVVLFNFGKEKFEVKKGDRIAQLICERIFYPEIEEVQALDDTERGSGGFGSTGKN
Excerpt: PCI 10586, 10585 and 10213 were suspended in DMSO at a concentration of 100 mmol/L, fluorodeoxyuridine (FUdR) was obtained from Sigma (St Louis, Mo.) and maintained in sterile double-distilled water at stock concentrations of 50 mmol/L. Recombinant human deoxyuridine nucleotidohydrolase (dUTPase) was expressed and purified as described previously [Please provide reference or confirm as noted above].
The diastereomer compounds were isolated by preparative chiral HPLC and screened in a novel fluorescence-based assay as described in Wilson et al. (2011) Nucleic Acids Res., September 1 39(17). […] The subsequent fluorescence detection step involved five 10 min cycles at 60° C. to completion.

A549 cells [8] = assay: MTS growth inhibition assay, A549; details: A549, 72 hours; for decrease in growth / reduction in proliferation: 100 μmol/L single agent
Procedure: (§4) The Cell Titer^96 AQueous MTS assay (Promega) was carried out according to the manufacturers guidelines. […] The combination effect was determined by the combination index (CI) method utilizing Calcusyn software (Biosoft, Ferguson, Mo.). Fraction affected (FA) was calculated from the percent growth inhibition: FA=(100−% growth inhibition)/100. CI values <1, synergism; 1-1.2, additive and >1.2, antagonism.
(§5) The NSCLC cell lines A549 and H1299 were exposed to increasing concentrations of each agent for 72 hours and growth inhibition was directly compared to vehicle-treated controls.

SW620 cells [9] = assay: MTS growth inhibition assay, SW620; details: for growth inhibition as a single agent: SW620, 25 μmol/L single agent; for single agent activity / decrease in proliferation: 100 μmol/L single agent; for combined effect with 5-FU on growth inhibition: SW620, fixed 25 μmol/L compound plus increasing 5-FU, up to 25 μmol/L 5-FU
Procedure: as §4
HCT116 and SW620 cells were exposed to increasing concentrations of each agent for 72 hours and growth inhibition was directly compared to vehicle-treated controls.

H1299 cells = assay: MTS growth inhibition assay, H1299; details: H1299, 72 hours, 100 μmol/L single agent
Procedure: as §4, §5

[10] = target: T1, Recombinant human deoxyuridine nucleotidohydrolase (dUTPase); assay: Fluorescence-based dUTPase inhibition assay (Example 19; 5 ng dUTPase, 8 min at 37° C.); details: for inhibition at 2.6 µM: 2.6 umol/L compound; for inhibition at 5.2 µM: 5.2 umol/L compound; for inhibition at 10.4 µM: 10.4 umol/L compound; for inhibition at 20.8 µM: 20.8 umol/L compound; for inhibition at 41.7 µM: 41.7 umol/L compound
Excerpt: All drugs stocks were aliquoted and diluted as appropriate prior to use. The oligonucelotide primer, templates and fluorophore- and quencher-labeled detection probes are synthesized by Integrated DNA Technologies (Coralville, Iowa), subjected to polyacrylamide gel electrophoresis purification and reconstituted in Omnipur sterile nuclease-free water (EMD Chemicals USA, Gibbstown N.J.) at a stock concentration of 100 μmol/L. The two non-emissive (dark) quenching molecules incorporated into the detection probes include the Iowa black fluorescein quencher (IBFQ; absorption max 531 nm) and ZEN (non-abbreviation; absorption max 532 nm). The fluorescent label utilized was 6-FAM (5′-carboxyfluorescein; excitation max.=494 nm, emission max.=520 nm). Probes were further diluted to a working stock of 10 μmol/L and aliquoted to avoid repeated freeze/thaw cycles. AmpliTaq Gold DNA Polymerase, GeneAmp 10×PCR Buffer 2, MgCl2 and MicroAmp Optical 96-well Reaction Plates were purchased from Applied Biosystems (Carlsbad, Calif.). dNTPs were purchased individually at stock concentrations of 100 mmol/L from New England Biolabs at HPLC-certified >99% purity (Ipswich, Mass.).
Reaction mixtures contained primer, probe and template at an equimolar final concentration of 0.4 μmol/L. Magnesium chloride (MgCl2) was included at a final concentration of 2 mmol/L. Non-limiting dNTPs were included in the reaction mix in excess at a final concentration of 100 μmol/L (dUTP/dTTP was excluded). AmpliTaq Gold DNA polymerase was added at 0.875 U/reaction, 2.5 μl of 10×PCR buffer 2 added and nuclease-free ddH2O added to a final reaction volume of 25 μl. For dUTP inhibition analysis, the volume of ddH2O was further modified to accommodate an additional 1 μl of dUTPase (10 ng/μl) and 1 μl of inhibitor or DMSO control. Thermal profiling and fluorescence detection was performed using the ‘isothermal’ program on board an Applied Biosystems 7500 Real-Time PCR System. For analysis of dNTPs, the thermal profile consisted of an 8 min 37° C. step followed by a 10 min 95° C. step to ‘hot-start’ the Taq polymerase and a primer extension time of up to 30 min at 60° C. depending on the application. Raw fluorescence spectra for 6-FAM was measured using filter A at specified time intervals to follow assay progression using Sequence Detection Software (SDS Version 1.4, Applied Biosystems) and exported and analyzed in Microsoft Excel (Microsoft, Redmond Wash.) and Prism (GraphPad Software, La Jolla Calif.). In all cases, fluorescence values for blank reactions (limiting dNTP omitted) were subtracted to give normalized fluorescence units (NFU) to account for background fluorescence.
The assay employs a DNA polymerase-based approach utilizing an oligonucleotide template with 3 distinct regions: a 3′ primer binding region, a mid-template dUTP/thymidine triphosphate (TTP) detection region and a 5′ 6-Flavin adenine mononucleotide (FAM)-labeled probe binding region that incorporates a black hole quenching moiety.
reaction, the probe and primer hybridize to the oligonucleotide template to form the template:primer:probe complex. When Taq polymerase binds to the primer in the TPP complex and dUTP is present, successful extension of the nascent strand occurs and the inherent 5′ to 3′ exonuclease activity of Taq polymerase cleaves and displaces the 6-FAM-labeled probe in a 5′ to 3′ direction, releasing the 6-FAM fluorophore from its proximity to the three quenchers.

HCT116 cells [11] = assay: cells; details: Homo sapiens, HCT-116, read-out: growth inhibition as a single agent

## C[C@@H](NS(=O)(=O)CC/C=C/CC1CCC(=O)NC1=O)c1cccc(OCC2CC2)c1 (mixture of isomers) [PCI 10213]
HCT116 cells [1]; HCT116, 50 μmol/L compound plus FUdR
  viability, combination with FUdR: complete loss of viability
HCT116 cells [1]; HCT116, 3.1 to 50 μmol/L compound plus 0.5 μmol/L FUdR
  colonies, all combinations with FUdR: strong synergistic reduction in colonies
HCT116 cells [1]; HCT116, 12.5 and 25 μmol/L compound plus 0.5 μmol/L FUdR
  reduction of colony formation, combination with FUdR: > 95%
HCT116 cells [1]; HCT116, PCI 10213 3.1 to 50 μmol/L or FUdR 0.5 μmol/L alone
  number of colonies formed, single agent: neither PCI 10213 or the fixed dose of FUdR single agent had any significant effect on the number of colonies formed
SW620 cells [2]; SW620 (strongly FUdR-resistant), 12.5 and 25 μmol/L compound plus FUdR (0.5 μmol/L in the sentence)
  reduction of colony formation, combination with FUdR: > 50%
SW620 cells [2]; SW620, 3.1 to 50 μmol/L compound plus 1 μmol/L FUdR
  colonies, all combinations with FUdR: strong synergistic reduction in colonies
SW620 cells [2]; SW620, PCI 10213 3.1 to 50 μmol/L or FUdR 1 μmol/L alone
  number of colonies formed, single agent: neither PCI 10213 or the fixed dose of FUdR single agent had any significant effect on the number of colonies formed
A549 cells [3]; A549, 12.5 and 25 μmol/L compound plus 1 μmol/L FUdR, vs vehicle-treated controls
  reduction of cell viability, combination with FUdR: > 95%
H460 cells; H460, 12.5 and 25 μmol/L compound plus 1 μmol/L FUdR, vs vehicle-treated controls
  reduction of cell viability, combination with FUdR: > 95%
[4]; 3.1 to 25 μmol/L single agent
  number of colonies formed, compound alone: no significant effects on the number of colonies formed
[5]
  colonies formed, combination with FUdR: highly significant reductions in colonies formed
HCT116 cells [6]; HCT116, 25 μmol/L single agent
  growth inhibition as a single agent: no detectable effect on growth inhibition
HCT116 cells [6]; HCT116, 72 hours
  decrease in growth / reduction in proliferation: 28%
HCT116 cells [6]; HCT116, 72 hours, up to 75 μmol/L
  single agent activity (growth inhibition vs vehicle): little to no single agent activity
HCT116 cells [6]
  combined effect with 5-FU on growth inhibition: additive and synergistic increases in growth inhibition
[7]; 1.3 μmol/L compound
  inhibition at 1.3 µM: 4.7%
[7]; 2.6 μmol/L compound
  inhibition at 2.6 µM: 9.6%
[7]; 5.2 μmol/L compound
  inhibition at 5.2 µM: 14.5%
[7]; 10.4 μmol/L compound
  inhibition at 10.4 µM: 24.9%
[7]; 20.8 μmol/L compound
  inhibition at 20.8 µM: 30%
[7]; 41.7 μmol/L compound
  inhibition at 41.7 µM: 45.5%
[7]; 83.3 μmol/L compound
  inhibition at 83.3 µM: 54.6%
A549 cells [8]
  decrease in growth / reduction in proliferation: ~25%
SW620 cells [9]
  growth inhibition as a single agent: no detectable effect on growth inhibition
  combined effect with 5-FU on growth inhibition: additive and synergistic increases in growth inhibition
SW620 cells [9]; SW620, 72 hours
  single agent activity / decrease in proliferation: ~30%
SW620 cells [9]; SW620, 72 hours, up to 75 μmol/L
  single agent activity (growth inhibition vs vehicle): neither PCI 10213 or 10214 had any single agent activity
H1299 cells
  decrease in cell proliferation: 40%
[10]
  IC50: 7.2 µM
  inhibition at 2.6 µM: 31.6%
  inhibition at 5.2 µM: 40.9%
  inhibition at 10.4 µM: 60.3%
  inhibition at 20.8 µM: 64.5%
  inhibition at 41.7 µM: 73.8%
[10]; 1.3 umol/L compound
  inhibition at 1.3 µM: 28%
[10]; 83.3 umol/L compound
  % Inhibition: 86.1%
  inhibition at 83.3 µM: 86%

## C[C@@H](NS(=O)(=O)CC/C=C/Cn1ccc(=O)[nH]c1=O)c1cccc(OCC2CC2)c1 [PCI 10216, reference compound]
HCT116 cells [1]; HCT116, 25 and 50 μmol/L single agent
  number of colonies formed, compound alone: some reduction in the number of colonies formed
A549 cells [3]; A549, 25 and 50 μmol/L single agent
  number of colonies formed, compound alone: some reduction in the number of colonies formed
H460 cells; H460, 25 and 50 μmol/L single agent
  number of colonies formed, compound alone: some reduction in the number of colonies formed
[4]; all cell lines examined (Example 22)
  combined drug effect with fixed doses of FUdR: strong synergy
HCT116 cells [6]; HCT116, 72 hours
  decrease in growth / reduction in proliferation: 67%
HCT116 cells [6]; HCT116, 72 hours, single agent
  lowest concentration with detectable decrease in cell proliferation: 6.25 µmol/L
HCT116 cells [6]
  combined effect with 5-FU on growth inhibition: additive and synergistic increases in growth inhibition
HCT116 cells [11]
  inhibition at 25 µM: 44%
A549 cells [8]; 75 μmol/L single agent
  reduction in proliferation: 30%
A549 cells [8]
  decrease in growth / reduction in proliferation: 55%
SW620 cells [9]
  growth inhibition as a single agent: 30%
  combined effect with 5-FU on growth inhibition: additive and synergistic increases in growth inhibition
SW620 cells [9]; SW620, 72 hours
  single agent activity / decrease in proliferation: 70%
H1299 cells
  decrease in cell proliferation: 30%
[10]
  IC50: 0.8 µM
  inhibition at 2.6 µM: 76.6%
  inhibition at 5.2 µM: 84.6%
  inhibition at 10.4 µM: 95.9%
  inhibition at 20.8 µM: 101%
  inhibition at 41.7 µM: 97.2%
[10]; 1.3 umol/L compound
  % Inhibition: 60.4%
  inhibition at 1.3 µM: 60%
[10]; 83.3 umol/L compound
  % Inhibition: 95.4%
  inhibition at 83.3 µM: 95%
